Experimental data published in patent US20250345318A1, “COMPOUND AND USE THEREOF IN PREVENTING OR TREATING RADIATION DAMAGE” (SIMCERE PHARMACEUTICAL CO., LTD., priority 2022, published 2025).

What was measured:
JWA^IEC-ko mice = assay: X-ray-induced intestinal injury in intestinal epithelial JWA-knockout mice (Example 12); assay type: in vivo; settings: JAC4 10 mg/kg daily, ABI 10 Gy
Excerpt: (§1) The Model Animal Research Institute of Nanjing University was commissioned to conduct the construction of JWA^flox/+ A129 mice and embryo cryopreservation, preservation, and thawing. These mice were bred with wild-type C57/BL6 mice for over six generations to give mice of C57/BL6 background. Villin-cre mice, provided by Shanghai Model Organisms Center, Inc., were C57/BL6 mice. The JWA-knockout mice (JWA^ko) and their littermate control (JWA^wt) counterparts were derived from an in-house conservation breed. The JWA^flox/flox mice were bred from the JWA^flox/+ mice. The intestinal epithelial JWA-knockout mice (JWA^IEC-ko) and control group (JWA^IEC-wt) were obtained through breeding JWA^flex/flex mice with Villin-cre mice.
(§2) The off-target model was established using JWA^IEC-ko mice and their JWA^IEC-wt littermates (8 weeks old), and the mice receiving radiation were divided into 4 groups: (1) a JWA^IEC-wt mice+vehicle group (n=5); (2) a JWA^IEC-wt mice+JAC4 group (n=5); (3) a JWA^IEC-ko mice+vehicle group (n=6); (4) a JWA^IEC-ko mice+JAC4 group (n=5). All mice were subjected to abdominal irradiation at 10 Gy. 7 days before radiation, 10 mg/kg JAC4 or an equal volume of vehicle (polyethylene glycol:ethanol:physiological saline=40:7.5:52.5, v/v/v) was administered intragastrically daily until the end of modeling. The blank control group (wild type, n=6) was not irradiated, and the modeling was terminated on day 4 after radiation.
(§3) To verify whether the protective effect of JAC4 on X-ray radiation-induced intestinal damage in mice is dependent on the expression of JWA, the present disclosure verified the targeting effect of JAC4 using JWA^IEC-ko mice.
(§4) JWA^IEC-ko and JWA^IEC-wt mice were treated daily with JAC4 (10 mg/kg) or an equal volume of vehicle (polyethylene glycol:ethanol:physiological saline=47.5:7.5:50, v/v/v), respectively, from 7 days before the ABI (10 Gy) exposure to 4 days after the exposure. […] Meanwhile, the contents of TNF-α and IL-1β were consistent with the results of FD4. […] As shown in panels E and F, ABI increased the activity of GSH-Px (530.8±207.8 vs. 406.2±197.9 U/mL) and decreased the activity of CAT (89.4 f 0.4 vs. 68.7±14.2 U/mL). JAC4 further enhanced the antioxidant enzymes in JWA^IEC-wt mice (815.1±203.9 vs. 530.8±207.8 U/mL and 85.9±8.2 vs. 68.7±14.2 U/mL; P<0.05, P<0.05). […] Intestinal tissues were isolated, and the expression of apoptotic molecules was detected by Western blot (FIG. 16J). In wild-type mice, compared with the control group, X-rays increased the expression of Bax and cleaved PARP1 in the small intestine.

SPCA-1 cells = assay: Intracellular ROS (DCFH-DA), SPCA-1 (Example 22); assay type: cell-based, human
Excerpt: The large amount of reactive oxygen species (ROS) induced by X-ray and the sustained oxidative stress reaction may cause DNA damage. Superoxide dismutase (SOD) and catalase (CAT) exert antioxidant effects, and the lipid oxidation product malondialdehyde (MDA) and ROS can reflect the oxidative stress level in vivo. The intracellular ROS level was detected using the fluorescent probe DCFH-DA. […] The supernatant of BEAS-2B cells was extracted and subjected to an MDA assay and an activity assay for CAT and SOD.

[1] = tested on: BEAS-2B cells transfected with JWA-knockdown plasmids; assay: Colony formation of BEAS-2B cells transfected with JWA-knockdown plasmids (Example 22); assay type: cell-based, human; settings: JAC4-treated JWA-knockdown BEAS-2B vs JAC4-treated si-Control
Experimental: 1. SPCA-1 and BEAS-2B cells (or SPCA-1 and BEAS-2B cells transfected with JWA-knockdown plasmids) in the exponential growth phase were plated in 6-well plates at a specific amount. The number of plated cells is as follows
2. After the cells adhered to the container wall, the cells were treated (or not treated) with […] JAC4 and treated with X-ray of 0, 2, 4, or 6 Gy. The medium was replaced with a fresh medium containing JAC4 at the corresponding concentration once every 2 days (or the cells were treated with X-ray of 0, 2, 4, or 6 Gy after adhesion, and the medium was replaced with a fresh medium once every 2 days).
3. After the cells were cultured for 10-14 days, colonies were visually observed. The culture medium was discarded, and the cells were fixed with methanol for 10-20 min, stained with crystal violet for 10 min, slowly washed with flowing clear water thrice, photographed, and counted for colonies containing>50 cells.
4. The colony forming efficiency (CFE)=(number of colonies formed/number of seeded cells) 100% was calculated, and the cell survival fraction (SF)=(colony forming efficiency of treatment group/colony forming efficiency of 0 Gy group)×100% was calculated from the colony forming efficiency. […]

JWA^IEC-wt mice = assay: X-ray-induced intestinal injury in JWA^IEC-wt mice (Example 12); assay type: in vivo; settings: ABI 10 Gy
Excerpt: as §1, §2, §3, §4

IEC-6 cells = assay: Western blot of DNA repair and apoptosis proteins in irradiated IEC-6 cells (Example 14); assay type: cell-based
C57BL/6 male mice = assay: Body weight after abdominal X-ray irradiation 12 Gy (Example 9); assay type: in vivo; settings: JAC4 100 mg/kg oral + abdominal X-ray 12 Gy
Experimental: CS7BL/6 male mice aged 10 weeks were divided into 3 groups, i.e., a vehicle control group, a vehicle+radiation group, and a JAC4+radiation group 8 days after radiation, with 6 mice in each group. JAC4 (100 mg/kg) or an equal volume of vehicle (polyethylene glycol:ethanol:physiological saline=47.5:7.5:50, v/v/v) was orally administered to the mice once daily for 7 days. After that, the mice were subjected to abdominal X-ray irradiation (12 Gy) and the JAC4 or vehicle treatment was continued for 4 days. The body weights of the mice before and after […] X-ray irradiation were recorded daily, and body weight curves were plotted.

[2] = JWA^IEC-wt mice, JAC4 10 mg/kg daily
[3] = JAC4 1 μM or 10 μM 24 h + 12 Gy, vs control group

c1ccc(CSc2nnc(C3COc4ccccc4O3)o2)nc1 (stereo not drawn) [JAC4]
enhancement of antioxidant enzymes (GSH-Px, CAT) (JWA^IEC-ko mice): not confirmed
plasma FD4 content (JWA^IEC-ko mice): 9192.8 ± 5573.2 ng/mL
plasma IL-1β (JWA^IEC-ko mice): 65.6 ± 3.3 ng/mL
plasma TNF-α (JWA^IEC-ko mice): 769.8 ± 112.3 ng/mL
crypt height (JWA^IEC-ko mice; day 4): 53.0±3.0 μm
intestinal villus length (JWA^IEC-ko mice; day 4): 150.6±8.4 μm
ROS level (SPCA-1 cells): no significant effect
cell survival rate (radiosensitization curve) [1]: significantly decreased
plasma CAT activity (JWA^IEC-wt mice; [2]): 85.9±8.2 U/mL
plasma GSH-Px activity (JWA^IEC-wt mice; [2]): 815.1±203.9 U/mL
plasma IL-1β (JWA^IEC-wt mice; [2]): 57.76 ± 5.9 ng/mL
plasma TNF-α (JWA^IEC-wt mice; [2]): 583.2 ± 78.2 ng/mL
plasma FD4 content (JWA^IEC-wt mice; JWA^IEC-wt mice, JAC4 10 mg/kg daily, day 4): 6719.9 ± 1823.5 ng/mL
expression of Bax and cleaved PARP1 in small intestine (Western blot) (JWA^IEC-wt mice; wild-type mice, JAC4 10 mg/kg): downregulated
anti-apoptotic proteins (Bcl-2) (IEC-6 cells; [3]): increases
pro-apoptotic proteins (spliced PARP1, spliced Caspase-3, spliced Caspase-9, Bax) (IEC-6 cells; [3]): decreases
XRCC1 expression level (IEC-6 cells; JAC4 treatment after radiation (small intestine tissue and IEC-6 cells)): increased its expression level
body weight curve (C57BL/6 male mice): consistently above that of the vehicle+radiation group
